Our source for the LDLR mRNA fold induction values is PubChem BioAssay AID1053163 (Broad Institute, 2014).

In the assay the test system is HepG2 + U0126, LDLR mRNA qRT-PCR, 6 h. The experiment in a line: MEK-dependence of LDLR transcript upregulation – cell-based, HepG2, U0126, RT-PCR, mechanism study for Trib1 inducer project, late-stage follow-up (AID 1053163). The following applies: hits give high values.

Each structure is given as a SMILES string.

With `CN1C(=O)c2cc(NC(=O)c3ccc(C(F)(F)F)cc3)ccc2OC[C@@H]2O[C@@H](CC(=O)NC3Cc4ccccc4C3)CC[C@@H]21`, the LDLR mRNA fold induction is 10.

Take `CN1C(=O)c2cc(NC(=O)c3ccc(C(F)(F)F)cc3)ccc2OC[C@@H]2O[C@H](CC(=O)NC3Cc4ccccc4C3)CC[C@@H]21`: the LDLR mRNA fold induction is 2.5.
